Measured values published in US20090105259A1, “Acyclic 1,4-Diamines and Uses Thereof” (priority 2005, published 2009).

Legend:
TRPV4 channel receptors [1] = target: T1, TRPV4 channel receptors (Homo sapiens, UniProt Q9HBA0); assay: Ca2+ influx through TRPV4 channel receptors, Fura-2 fluorescence on FlexStation, human articular chondrocytes; format: cell-based; conditions: Fura-2, FlexStation
T1 construct: obtained using this method in human articular chondrocytes; endogenous in cells; host or cells: human articular chondrocytes
T1 sequence (Q9HBA0 whole entry): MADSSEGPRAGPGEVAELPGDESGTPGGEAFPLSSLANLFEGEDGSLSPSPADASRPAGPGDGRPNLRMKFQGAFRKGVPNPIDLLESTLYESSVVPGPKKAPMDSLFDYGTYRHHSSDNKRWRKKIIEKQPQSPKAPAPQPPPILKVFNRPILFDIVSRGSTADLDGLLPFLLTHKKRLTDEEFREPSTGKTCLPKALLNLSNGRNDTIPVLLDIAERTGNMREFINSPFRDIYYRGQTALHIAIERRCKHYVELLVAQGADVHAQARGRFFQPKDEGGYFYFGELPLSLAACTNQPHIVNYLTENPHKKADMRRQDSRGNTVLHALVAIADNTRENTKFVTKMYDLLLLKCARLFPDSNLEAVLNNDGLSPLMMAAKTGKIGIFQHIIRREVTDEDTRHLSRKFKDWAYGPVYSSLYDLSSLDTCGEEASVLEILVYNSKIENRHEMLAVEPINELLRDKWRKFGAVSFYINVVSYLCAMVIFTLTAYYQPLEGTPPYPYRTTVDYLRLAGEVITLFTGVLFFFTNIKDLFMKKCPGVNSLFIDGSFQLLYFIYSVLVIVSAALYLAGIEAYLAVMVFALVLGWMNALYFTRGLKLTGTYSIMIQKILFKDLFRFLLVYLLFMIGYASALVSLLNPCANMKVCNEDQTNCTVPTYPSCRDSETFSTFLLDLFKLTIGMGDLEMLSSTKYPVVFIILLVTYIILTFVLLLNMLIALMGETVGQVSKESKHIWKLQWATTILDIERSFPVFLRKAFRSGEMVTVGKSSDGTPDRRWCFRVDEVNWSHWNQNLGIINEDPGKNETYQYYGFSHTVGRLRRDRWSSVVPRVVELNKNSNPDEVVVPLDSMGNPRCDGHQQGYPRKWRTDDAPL
Source text: (§1) Ca^2+ influx mediated through TRPV4 channel receptors can be measured using articular chondrocytes from such species as, but not limited to, human, rat, canine, rabbit, monkey, and bovine, using standard techniques in the art such as, but not limited to, Fura-2 (Invitrogen/Molecular Probes, Eugene, Oreg.) fluorescence using a FlexStation (manufactured by Molecular Devices, Sunnyvale, Calif.). Table 1 lists biological data for several representative compounds obtained using this method in bovine articular chondrocytes.
Table 2 lists biological data for several representative compounds obtained using this method in human articular chondrocytes.
(§2) All exemplary compounds of the present invention were assessed using at least one of the biological assays presented above. Compounds presented in the Examples had EC50 values of about 0.01 μM to 10 μM as measured by Flex Station using bovine and/or human articular chondrocytes.

TRPV4 channel receptors [2] = target: T2, TRPV4 channel receptors (Bos taurus, UniProt A0A8F4X677); assay: Ca2+ influx through TRPV4 channel receptors, Fura-2 fluorescence on FlexStation, bovine articular chondrocytes; format: cell-based; conditions: Fura-2, FlexStation
T2 construct: obtained using this method in bovine articular chondrocytes; endogenous in cells; host or cells: bovine articular chondrocytes
T2 sequence (A0A8F4X677 1-871): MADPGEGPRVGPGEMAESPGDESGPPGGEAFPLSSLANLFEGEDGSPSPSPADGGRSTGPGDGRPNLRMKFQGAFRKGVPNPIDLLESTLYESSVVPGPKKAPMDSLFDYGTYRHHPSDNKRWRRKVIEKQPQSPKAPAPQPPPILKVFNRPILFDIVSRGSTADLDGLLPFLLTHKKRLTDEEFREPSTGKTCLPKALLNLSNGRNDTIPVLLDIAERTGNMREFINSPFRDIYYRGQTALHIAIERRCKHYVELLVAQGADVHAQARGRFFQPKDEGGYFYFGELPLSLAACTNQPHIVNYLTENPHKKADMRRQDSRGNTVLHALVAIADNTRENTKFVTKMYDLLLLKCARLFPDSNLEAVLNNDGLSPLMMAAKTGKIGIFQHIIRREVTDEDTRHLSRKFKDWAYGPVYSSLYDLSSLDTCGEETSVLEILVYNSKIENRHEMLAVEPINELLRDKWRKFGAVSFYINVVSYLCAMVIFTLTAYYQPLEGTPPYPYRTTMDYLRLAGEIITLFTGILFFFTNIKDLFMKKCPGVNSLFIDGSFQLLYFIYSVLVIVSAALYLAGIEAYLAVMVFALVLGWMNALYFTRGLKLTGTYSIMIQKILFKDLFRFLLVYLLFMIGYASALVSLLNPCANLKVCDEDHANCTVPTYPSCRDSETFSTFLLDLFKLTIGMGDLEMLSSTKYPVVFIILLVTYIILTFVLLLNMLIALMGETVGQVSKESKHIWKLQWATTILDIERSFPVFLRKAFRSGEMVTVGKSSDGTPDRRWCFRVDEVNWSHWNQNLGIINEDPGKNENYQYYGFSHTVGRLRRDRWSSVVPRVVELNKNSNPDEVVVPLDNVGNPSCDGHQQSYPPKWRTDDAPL
Source text: as §1, §2

| EC50 (TRPV4 channel receptors [1]) | EC50 (TRPV4 channel receptors [2]) | SMILES |
| --- | --- | --- |
| 100 to 1000 nM | – | Cc1c(C(=O)N[C@@H](CC(C)C)C(=O)NCCCCNS(=O)(=O)c2ccc(Cl)cc2Cl)oc2cccnc12 [Example 6, N-((1S)-1-{[(4-{[(2,4-Dichlorophenyl)sulfonyl]amino}butyl)amino]carbonyl}-3-methylbutyl)-3-methylfuro[3,2-b]pyridine-2-carboxamide] |
| 30 to 90 nM | 30 to 60 nM | CC(C)C[C@H](NC(=O)c1cc2ccccc2s1)C(=O)NCCCCNS(=O)(=O)c1ccc(Br)cc1Cl [Example 3, N-((1S)-1-{[(4-{[(4-Bromo-2-chlorophenyl)sulfonyl]amino}butyl)amino]carbonyl}-3-methylbutyl)-1-benzothiophene-2-carboxamide] |
| 1000 to 10000 nM | – | CC(C)C[C@H](NC(=O)c1nc2ccccc2s1)C(=O)NCCCCNS(=O)(=O)c1ccc(F)cc1Cl [Example 50, N-((1S)-1-{[(4-{[(2-Chloro-4-fluorophenyl)sulfonyl]amino}butyl)amino]carbonyl}-3-methylbutyl)-1,3-benzothiazole-2-carboxamide] |
| – | 70 to 100 nM | CC(C)C[C@H](NC(=O)c1cc2ccccc2s1)C(=O)NCCCCNS(=O)(=O)c1ccc(F)cc1Cl [Example 5, N-((1S)-1-{[(4-{[(2-Chloro-4-fluorophenyl)sulfonyl]amino}butyl)amino]carbonyl}-3-methylbutyl)-1-benzothiophene-2-carboxamide] |
